Experimental data as given in ChEMBL document CHEMBL3779783, “Short cationic lipopeptides as effective antibacterial agents: Design, physicochemical properties and biological evaluation” (Bioorg Med Chem, 2016).
Values after ≈ are worked out from the molar mass of the structure shown. Active and inactive are the calls of the source. The calls are words filed in the database; no cut-off is given here. Starred links: 1 amine or outer side, 2 acyl side, 3 side chain; linkers in the order of their positions; H or OH if unused. Positions of bridges follow the written chain, without caps; N, C: chain ends. Non-standard residues stand in square brackets, D forms with d. Residues, ends and D or L forms follow the SMILES beside them. ξ: configuration not given here. ξGly(decyl) = CCCCCCCCCCC(N)C(=O)O; Suc = O=C(CCC(=O)[*:2])[*:1]

Key:
Staphylococcus aureus [1] = experiment: Antimicrobial activity against methicillin-resistant Staphylococcus aureus ATCC 43300 after 24 hrs by M7-A7 method; assay type: functional; conditions: ATCC 43300, 24 h
Staphylococcus aureus [2] = experiment: Antimicrobial activity against vancomycin-resistant Staphylococcus aureus NARSA VRS4 after 24 hrs by M7-A7 method; assay type: functional; conditions: NARSA VRS4, 24 h
Streptococcus pneumoniae [3] = experiment: Antimicrobial activity against multidrug resistant Streptococcus pneumoniae ATCC 700677 after 24 hrs by M7-A7 method; assay type: functional; conditions: ATCC 700677, 24 h
Klebsiella pneumoniae [4] = experiment: Antimicrobial activity against multidrug resistant Klebsiella pneumoniae ATCC 700603 after 24 hrs by M7-A7 method; assay type: functional; conditions: Klebsiella pneumoniae, 700603, 24 h
Enterococcus faecium [5] = experiment: Antimicrobial activity against multidrug resistant and high level vancomycin resistant Enterococcus faecium ATCC 51559 after 24 hrs by M7-A7 method; assay type: functional; conditions: ATCC 51559, 24 h
Staphylococcus aureus [6] = experiment: Antimicrobial activity against clinical isolates of multi-resistant/methicillin-resistant Staphylococcus aureus after 24 hrs by M7-A7 method; assay type: functional
Enterococcus faecalis [7] = experiment: Antimicrobial activity against clinical isolates of high level vancomycin-resistant Enterococcus faecalis after 24 hrs by M7-A7 method; assay type: functional
Staphylococcus aureus [8] = experiment: Antimicrobial activity against clinical isolates of methicillin-resistant Staphylococcus aureus after 24 hrs by M7-A7 method; assay type: functional
Staphylococcus aureus [9] = experiment: Antimicrobial activity against glycopeptide-intermediate Staphylococcus aureus NRS17 after 24 hrs by M7-A7 method; assay type: functional; conditions: NRS17, 24 h
Escherichia coli [10] = experiment: Antimicrobial activity against Escherichia coli ATCC 25922 after 24 hrs by M7-A7 method; assay type: functional; conditions: ATCC 25922, 24 h
Staphylococcus aureus [11] = experiment: Antimicrobial activity against methicillin-susceptible Staphylococcus aureus ATCC 25923 assessed as membrane burst at 16 times MIC after 3 hrs by transmission electron microscopic analysis; assay type: functional, organism-based
Staphylococcus aureus [12] = experiment: Antimicrobial activity against glycopeptide-intermediate Staphylococcus aureus NRS1 after 24 hrs by M7-A7 method; assay type: functional; conditions: NRS1, 24 h
Pseudomonas aeruginosa [13] = experiment: Antimicrobial activity against Pseudomonas aeruginosa ATCC 27853 after 24 hrs by M7-A7 method; assay type: functional; conditions: ATCC 27853, 24 h
Acinetobacter baumannii [14] = experiment: Antimicrobial activity against Acinetobacter baumannii […] after 24 hrs by M7-A7 method; assay type: functional
Staphylococcus aureus [15] = experiment: Antimicrobial activity against vancomycin-resistant Staphylococcus aureus NARSA VRS1 after 24 hrs by M7-A7 method; assay type: functional; conditions: NARSA VRS1, 24 h
[16] = Metabolic stability in 0.1 M NH4HCO3 buffer at pH 8.16 assessed as trypsin (unknown origin)-mediated compound degradation after 2 to 12 hrs by RP-HPLC method; assay type: ADME; conditions: human
Staphylococcus aureus [17] = experiment: Antimicrobial activity against vancomycin-resistant Staphylococcus aureus NARSA VRS10 after 24 hrs by M7-A7 method; assay type: functional; conditions: NARSA VRS10, 24 h
Klebsiella pneumoniae [18] = experiment: Antimicrobial activity against NDM-1 positive Klebsiella pneumoniae BAA-2146 after 24 hrs by M7-A7 method; assay type: functional; conditions: ATCC BAA-2146, 24 h
Klebsiella pneumoniae [19] = experiment: Antimicrobial activity against Klebsiella pneumoniae ATCC 13883 after 24 hrs by M7-A7 method; assay type: functional; conditions: ATCC 13883, 24 h
Streptococcus pneumoniae [20] = experiment: Antimicrobial activity against multidrug resistant Streptococcus pneumoniae ATCC 700677 after 20 hrs by microdilution assay; assay type: functional; conditions: ATCC 700677, 20 h
Enterococcus faecium [21] = experiment: Antimicrobial activity against multidrug resistant and high level vancomycin resistant Enterococcus faecium ATCC 51559 after 20 hrs by microdilution assay; assay type: functional; conditions: ATCC 51559, 20 h
Staphylococcus aureus [22] = experiment: Antimicrobial activity against vancomycin-resistant Staphylococcus aureus NARSA VRS10 after 20 hrs by microdilution assay; assay type: functional; conditions: NARSA VRS10, 20 h
Klebsiella pneumoniae [23] = experiment: Antimicrobial activity against Klebsiella pneumoniae ATCC 13883 after 20 hrs by microdilution assay; assay type: functional
[24] = Cytotoxicity against HEK293 cells after 24 hrs by MTT assay; assay type: cell-based; conditions: human
[25] = Cytotoxicity against human HepG2 cells after 24 hrs by MTT assay; assay type: cell-based
Staphylococcus aureus [26] = experiment: Antimicrobial activity against clinical isolates of methicillin-resistant Staphylococcus aureus after 20 hrs by microdilution assay; assay type: functional
Staphylococcus aureus [27] = experiment: Antimicrobial activity against methicillin-resistant Staphylococcus aureus ATCC 43300 after 20 hrs by microdilution assay; assay type: functional; conditions: ATCC 43300, 20 h
Klebsiella pneumoniae [28] = experiment: Antimicrobial activity against multidrug resistant Klebsiella pneumoniae ATCC 700603 after 20 hrs by microdilution assay; assay type: functional
Escherichia coli [29] = experiment: Antimicrobial activity against Escherichia coli ATCC 25922 after 20 hrs by microdilution assay; assay type: functional
Staphylococcus aureus [30] = experiment: Antimicrobial activity against clinical isolates of multi-resistant/methicillin-resistant Staphylococcus aureus after 20 hrs by microdilution assay; assay type: functional
Staphylococcus aureus [31] = experiment: Antimicrobial activity against vancomycin-resistant Staphylococcus aureus NARSA VRS4 after 20 hrs by microdilution assay; assay type: functional; conditions: NARSA VRS4, 20 h
Acinetobacter baumannii [32] = experiment: Antimicrobial activity against Acinetobacter baumannii […] after 20 hrs by microdilution assay; assay type: functional
Pseudomonas aeruginosa [33] = experiment: Antimicrobial activity against Pseudomonas aeruginosa ATCC 27853 after 20 hrs by microdilution assay; assay type: functional
Staphylococcus aureus [34] = experiment: Antimicrobial activity against vancomycin-resistant Staphylococcus aureus NARSA VRS1 after 20 hrs by microdilution assay; assay type: functional; conditions: NARSA VRS1, 20 h
Staphylococcus aureus [35] = experiment: Antimicrobial activity against methicillin-susceptible Staphylococcus aureus ATCC 25923 after 20 hrs by microdilution assay; assay type: functional; conditions: ATCC 25923, 20 h
Staphylococcus aureus [36] = experiment: Antimicrobial activity against glycopeptide-intermediate Staphylococcus aureus NRS1 after 20 hrs by microdilution assay; assay type: functional; conditions: NRS1, 20 h
Klebsiella pneumoniae [37] = experiment: Antimicrobial activity against NDM-1 positive Klebsiella pneumoniae BAA-2146 after 20 hrs by microdilution assay; assay type: functional
Staphylococcus aureus [38] = experiment: Antimicrobial activity against glycopeptide-intermediate Staphylococcus aureus NRS17 after 20 hrs by microdilution assay; assay type: functional; conditions: NRS17, 20 h
Enterococcus faecalis [39] = experiment: Antimicrobial activity against clinical isolates of high level vancomycin-resistant Enterococcus faecalis after 20 hrs by microdilution assay; assay type: functional
Staphylococcus aureus [40] = experiment: Antimicrobial activity against methicillin-susceptible Staphylococcus aureus ATCC 25923 after 24 hrs by M7-A7 method; assay type: functional; conditions: ATCC 25923, 24 h

Compound	MIC (Staphylococcus aureus [1]) [µM]	MIC (Staphylococcus aureus [2]) [µM]	MIC (Streptococcus pneumoniae [3]) [µM]	MIC (Klebsiella pneumoniae [4]) [µM]	MIC (Enterococcus faecium [5]) [µM]	MIC (Staphylococcus aureus [6]) [µM]	MIC (Enterococcus faecalis [7]) [µM]	MIC (Staphylococcus aureus [8]) [µM]	MIC (Staphylococcus aureus [9]) [µM]	MIC (Escherichia coli [10]) [µM]	MIC (Staphylococcus aureus [12]) [µM]	MIC (Pseudomonas aeruginosa [13]) [µM]	MIC (Acinetobacter baumannii [14]) [µM]	MIC (Staphylococcus aureus [15]) [µM]	MIC (Staphylococcus aureus [17]) [µM]	MIC (Klebsiella pneumoniae [18]) [µM]	MIC (Klebsiella pneumoniae [19]) [µM]	MIC (Acinetobacter baumannii [32]) [µM]	further results
CCCCCCCCCCC(NC(=O)C(CCCCCCCCCC)NC(=O)C(CCCCN)NC(=O)C(CCCCN)NC(C)=O)C(=O)NC(CCCCNC(C)=O)C(=O)NCC(N)=O (stereo not drawn) (Ac-KK[ξGly(decyl)][ξGly(decyl)]K(Ac)G-NH2; configuration not given here)	1.9 (≈ 1.78 µg/mL)	2.8 (≈ 2.62 µg/mL)	3.8 (≈ 3.56 µg/mL)	> 15	2.8 (≈ 2.62 µg/mL)	3.8 (≈ 3.56 µg/mL)	1.9 (≈ 1.78 µg/mL)	11.3 (≈ 10.6 µg/mL)	2.8 (≈ 2.62 µg/mL)	15 (≈ 14.1 µg/mL)	1.9 (≈ 1.78 µg/mL)	7.5 (≈ 7.03 µg/mL)	7.5 (≈ 7.03 µg/mL)	1.9 (≈ 1.78 µg/mL)	2.8 (≈ 2.62 µg/mL)	> 15	15 (≈ 14.1 µg/mL)	–	Activity (Staphylococcus aureus [11]): Active; Stability [16]: Stable
CCCCCCCCCCC(NC(=O)C(CCCCNC(=O)C(CCCCN)NC(C)=O)NC(=O)C(CCCCN)NC(C)=O)C(N)=O (stereo not drawn)	–	–	–	–	–	–	–	–	–	–	–	–	–	–	–	–	–	> 30	MIC (Streptococcus pneumoniae [20]): > 30 µM; MIC (Enterococcus faecium [21]): > 30 µM; MIC (Staphylococcus aureus [22]): > 30 µM; MIC (Klebsiella pneumoniae [23]; ATCC 13883, 20 h): > 30 µM; CC50 at 24 h [24]: > 15 µM; CC50 at 24 h [25]: > 15 µM; MIC (Staphylococcus aureus [26]): > 30 µM; MIC (Staphylococcus aureus [27]): > 30 µM; MIC (Klebsiella pneumoniae [28]; Klebsiella pneumoniae, 700603, 20 h): > 30 µM; MIC (Escherichia coli [29]; ATCC 25922, 20 h): > 30 µM; MIC (Staphylococcus aureus [30]): > 30 µM; MIC (Staphylococcus aureus [31]): > 30 µM; MIC (Pseudomonas aeruginosa [33]; ATCC 27853, 20 h): > 30 µM; MIC (Staphylococcus aureus [34]): > 30 µM; MIC (Staphylococcus aureus [35]): > 30 µM; MIC (Staphylococcus aureus [36]): > 30 µM; MIC (Klebsiella pneumoniae [37]; ATCC BAA-2146, 20 h): > 30 µM; MIC (Staphylococcus aureus [38]): > 30 µM; MIC (Enterococcus faecalis [39]): 30 µM (≈ 20.5 µg/mL)
CCCCCCCCCCC1NC(=O)C(CCCCCCCCCC)NC(=O)C(CCCCN)NC(=O)C(CCCCN)NC(=O)CCC(=O)NCCCCC(C(=O)NCC(N)=O)NC1=O (stereo not drawn) (KK[ξGly(decyl)][ξGly(decyl)]KG-NH2; linker N-5 via Suc; configuration not given here)	0.5 (≈ 0.468 µg/mL)	0.5 (≈ 0.468 µg/mL)	0.9 (≈ 0.842 µg/mL)	> 30	0.3 (≈ 0.281 µg/mL)	1.9 (≈ 1.78 µg/mL)	0.2 (≈ 0.187 µg/mL)	1.4 (≈ 1.31 µg/mL)	0.9 (≈ 0.842 µg/mL)	≥ 30	1.2 (≈ 1.12 µg/mL)	30 (≈ 28.1 µg/mL)	15 (≈ 14 µg/mL)	0.7 (≈ 0.655 µg/mL)	0.9 (≈ 0.842 µg/mL)	> 30	> 30	–	MIC (Staphylococcus aureus [40]): 0.5 µM (≈ 0.468 µg/mL)
COLISTIN	–	–	–	–	–	–	–	–	–	–	–	–	–	–	–	–	–	0.04	MIC (Klebsiella pneumoniae [23]): 0.04 µM; MIC (Klebsiella pneumoniae [28]): 0.04 µM; MIC (Escherichia coli [29]): 0.02 µM; MIC (Pseudomonas aeruginosa [33]): 0.09 µM; MIC (Klebsiella pneumoniae [37]; ATCC BAA-2146): 0.04 µM
